Assay results reported in the NIST ThermoML archive (doi:10.1016/j.jct.2016.04.003).
± gives the expanded uncertainty stated by the source.

Assay: xn = mol fraction of the nth substance listed
Settings: for surface tension liquid-gas: Drop volume; for viscosity / speed of sound / mass density: 99 kPa, Liquid; for viscosity: Capillary tube (Ostwald / Ubbelohde) method; for speed of sound: Frequency=3 MHz, Sing-around technique in a fixed-path interferometer; for mass density: Vibrating tube method

CCCC[n+]1ccccc1.F[B-](F)(F)F [1-butylpyridinium tetrafluoroborate] + O
surface tension liquid-gas (313.15 K, x1 = 0.0115): 55.5 ± 0.6 mN/m | surface tension liquid-gas (313.15 K, x1 = 0.0185): 53 ± 0.6 mN/m | surface tension liquid-gas (313.15 K, x1 = 0.0271): 51.6 ± 0.6 mN/m | surface tension liquid-gas (313.15 K, x1 = 0.0372): 50.3 ± 0.5 mN/m | surface tension liquid-gas (313.15 K, x1 = 0.0456): 49.9 ± 0.5 mN/m | surface tension liquid-gas (313.15 K, x1 = 0.0942): 48.5 ± 0.5 mN/m | surface tension liquid-gas (313.15 K, x1 = 0.1907): 47.9 ± 0.5 mN/m | surface tension liquid-gas (313.15 K, x1 = 0.2846): 47.7 ± 0.5 mN/m | surface tension liquid-gas (313.15 K, x1 = 0.34): 47.6 ± 0.5 mN/m | surface tension liquid-gas (313.15 K, x1 = 0.3866): 47.6 ± 0.5 mN/m | surface tension liquid-gas (313.15 K, x1 = 0.486): 47 ± 0.5 mN/m | surface tension liquid-gas (313.15 K, x1 = 0.5777): 46.6 ± 0.5 mN/m | surface tension liquid-gas (313.15 K, x1 = 0.6943): 46.2 ± 0.5 mN/m | surface tension liquid-gas (313.15 K, x1 = 0.7779): 45.9 ± 0.5 mN/m | surface tension liquid-gas (313.15 K, x1 = 0.835): 45.7 ± 0.5 mN/m | surface tension liquid-gas (313.15 K, x1 = 0.925): 45.7 ± 0.5 mN/m | surface tension liquid-gas (313.15 K, x1 = 1): 45.7 ± 0.5 mN/m | viscosity (313.15 K, x1 = 0.047): 0.845 ± 0.068 mPa·s | viscosity (313.15 K, x1 = 0.095): 1.16 ± 0.093 mPa·s | viscosity (313.15 K, x1 = 0.2001): 1.741 ± 0.14 mPa·s | viscosity (313.15 K, x1 = 0.2912): 2.929 ± 0.23 mPa·s | viscosity (313.15 K, x1 = 0.4015): 5.101 ± 0.41 mPa·s | viscosity (313.15 K, x1 = 0.4807): 8.106 ± 0.65 mPa·s | viscosity (313.15 K, x1 = 0.5815): 11.33 ± 0.91 mPa·s | viscosity (313.15 K, x1 = 0.6641): 15.02 ± 1.2 mPa·s | viscosity (313.15 K, x1 = 0.7855): 26.33 ± 2.1 mPa·s | viscosity (313.15 K, x1 = 0.8875): 44.04 ± 3.5 mPa·s | viscosity (313.15 K, x1 = 0.9305): 53.39 ± 4.3 mPa·s | viscosity (313.15 K, x1 = 0.9705): 63.74 ± 5.1 mPa·s | viscosity (313.15 K, x1 = 1): 71.1 ± 5.7 mPa·s | speed of sound (313.15 K, x1 = 0.0165): 1560 ± 1.2 m/s | speed of sound (313.15 K, x1 = 0.0379): 1576.8 ± 1.2 m/s | speed of sound (313.15 K, x1 = 0.0863): 1590.3 ± 1.2 m/s | speed of sound (313.15 K, x1 = 0.101): 1591.9 ± 1.2 m/s | speed of sound (313.15 K, x1 = 0.134): 1593.4 ± 1.2 m/s | speed of sound (313.15 K, x1 = 0.243): 1590.6 ± 1.3 m/s | speed of sound (313.15 K, x1 = 0.289): 1587.9 ± 1.3 m/s | speed of sound (313.15 K, x1 = 0.3456): 1585 ± 1.3 m/s | speed of sound (313.15 K, x1 = 0.4217): 1580.8 ± 1.3 m/s | speed of sound (313.15 K, x1 = 0.5485): 1575.2 ± 1.4 m/s | speed of sound (313.15 K, x1 = 0.6029): 1573.3 ± 1.4 m/s | speed of sound (313.15 K, x1 = 0.7232): 1569.9 ± 1.4 m/s | speed of sound (313.15 K, x1 = 0.8005): 1568.4 ± 1.5 m/s | speed of sound (313.15 K, x1 = 0.8575): 1567.3 ± 1.5 m/s | speed of sound (313.15 K, x1 = 0.9315): 1566.3 ± 1.5 m/s | speed of sound (313.15 K, x1 = 1): 1565.6 ± 1.6 m/s | mass density (313.15 K, x1 = 0.0165): 1021.2 ± 1 kg/m3 | mass density (313.15 K, x1 = 0.0379): 1049.2 ± 1 kg/m3 | mass density (313.15 K, x1 = 0.0863): 1089.2 ± 1 kg/m3 | mass density (313.15 K, x1 = 0.101): 1097.8 ± 1 kg/m3 | mass density (313.15 K, x1 = 0.134): 1113.3 ± 1 kg/m3 | mass density (313.15 K, x1 = 0.243): 1144.4 ± 1 kg/m3 | mass density (313.15 K, x1 = 0.289): 1152.9 ± 1 kg/m3 | mass density (313.15 K, x1 = 0.3456): 1161.3 ± 1 kg/m3 | mass density (313.15 K, x1 = 0.4217): 1170.1 ± 1 kg/m3 | mass density (313.15 K, x1 = 0.5485): 1180.9 ± 1 kg/m3 | mass density (313.15 K, x1 = 0.6029): 1184.6 ± 1 kg/m3 | mass density (313.15 K, x1 = 0.7232): 1191.6 ± 1 kg/m3 | mass density (313.15 K, x1 = 0.8005): 1195.3 ± 1 kg/m3 | mass density (313.15 K, x1 = 0.8575): 1197.8 ± 1 kg/m3 | mass density (313.15 K, x1 = 0.9315): 1200.9 ± 1.1 kg/m3 | mass density (313.15 K, x1 = 1): 1203.7 ± 1.1 kg/m3 | surface tension liquid-gas (323.15 K, x1 = 0.0115): 54.5 ± 0.6 mN/m | surface tension liquid-gas (323.15 K, x1 = 0.0185): 52 ± 0.6 mN/m | surface tension liquid-gas (323.15 K, x1 = 0.0271): 50.5 ± 0.5 mN/m | surface tension liquid-gas (323.15 K, x1 = 0.0372): 49.5 ± 0.5 mN/m | surface tension liquid-gas (323.15 K, x1 = 0.0456): 48.7 ± 0.5 mN/m | surface tension liquid-gas (323.15 K, x1 = 0.0942): 47.7 ± 0.5 mN/m | surface tension liquid-gas (323.15 K, x1 = 0.1907): 47.1 ± 0.5 mN/m | surface tension liquid-gas (323.15 K, x1 = 0.2846): 46.9 ± 0.5 mN/m | surface tension liquid-gas (323.15 K, x1 = 0.34): 46.6 ± 0.5 mN/m | surface tension liquid-gas (323.15 K, x1 = 0.3866): 46.4 ± 0.5 mN/m | surface tension liquid-gas (323.15 K, x1 = 0.486): 46.1 ± 0.5 mN/m | surface tension liquid-gas (323.15 K, x1 = 0.5777): 45.8 ± 0.5 mN/m | surface tension liquid-gas (323.15 K, x1 = 0.6943): 45.6 ± 0.5 mN/m | surface tension liquid-gas (323.15 K, x1 = 0.7779): 45.3 ± 0.5 mN/m | surface tension liquid-gas (323.15 K, x1 = 0.835): 45.1 ± 0.5 mN/m | surface tension liquid-gas (323.15 K, x1 = 0.925): 45.1 ± 0.5 mN/m | surface tension liquid-gas (323.15 K, x1 = 1): 45.1 ± 0.5 mN/m | viscosity (323.15 K, x1 = 0.047): 0.708 ± 0.057 mPa·s | viscosity (323.15 K, x1 = 0.095): 0.867 ± 0.07 mPa·s | viscosity (323.15 K, x1 = 0.2001): 1.418 ± 0.11 mPa·s | viscosity (323.15 K, x1 = 0.2912): 2.295 ± 0.18 mPa·s | viscosity (323.15 K, x1 = 0.4015): 3.991 ± 0.32 mPa·s | viscosity (323.15 K, x1 = 0.4807): 5.631 ± 0.45 mPa·s | viscosity (323.15 K, x1 = 0.5815): 7.929 ± 0.64 mPa·s | viscosity (323.15 K, x1 = 0.6641): 10.77 ± 0.86 mPa·s | viscosity (323.15 K, x1 = 0.7855): 18.47 ± 1.5 mPa·s | viscosity (323.15 K, x1 = 0.8875): 27.32 ± 2.2 mPa·s | viscosity (323.15 K, x1 = 0.9305): 34.39 ± 2.8 mPa·s | viscosity (323.15 K, x1 = 0.9705): 40.41 ± 3.2 mPa·s | viscosity (323.15 K, x1 = 1): 45.56 ± 3.7 mPa·s | speed of sound (323.15 K, x1 = 0.0165): 1561.9 ± 1.2 m/s | speed of sound (323.15 K, x1 = 0.0379): 1571.9 ± 1.2 m/s | speed of sound (323.15 K, x1 = 0.0863): 1577.9 ± 1.2 m/s | speed of sound (323.15 K, x1 = 0.101): 1577.7 ± 1.2 m/s | speed of sound (323.15 K, x1 = 0.134): 1576.8 ± 1.2 m/s | speed of sound (323.15 K, x1 = 0.243): 1569.9 ± 1.3 m/s | speed of sound (323.15 K, x1 = 0.289): 1566.7 ± 1.3 m/s | speed of sound (323.15 K, x1 = 0.3456): 1562.9 ± 1.3 m/s | speed of sound (323.15 K, x1 = 0.4217): 1558.9 ± 1.3 m/s | speed of sound (323.15 K, x1 = 0.5485): 1553.2 ± 1.4 m/s | speed of sound (323.15 K, x1 = 0.6029): 1551.3 ± 1.4 m/s | speed of sound (323.15 K, x1 = 0.7232): 1548 ± 1.4 m/s | speed of sound (323.15 K, x1 = 0.8005): 1546.4 ± 1.5 m/s | speed of sound (323.15 K, x1 = 0.8575): 1545.2 ± 1.5 m/s | speed of sound (323.15 K, x1 = 0.9315): 1544.1 ± 1.5 m/s | speed of sound (323.15 K, x1 = 1): 1543.5 ± 1.6 m/s | mass density (323.15 K, x1 = 0.0165): 1016.5 ± 1 kg/m3 | mass density (323.15 K, x1 = 0.0379): 1043.9 ± 1 kg/m3 | mass density (323.15 K, x1 = 0.0863): 1083 ± 1 kg/m3 | mass density (323.15 K, x1 = 0.101): 1091.5 ± 1 kg/m3 | mass density (323.15 K, x1 = 0.134): 1106.6 ± 1 kg/m3 | mass density (323.15 K, x1 = 0.243): 1137.2 ± 1 kg/m3 | mass density (323.15 K, x1 = 0.289): 1145.6 ± 1 kg/m3 | mass density (323.15 K, x1 = 0.3456): 1153.8 ± 1 kg/m3 | mass density (323.15 K, x1 = 0.4217): 1162.6 ± 1 kg/m3 | mass density (323.15 K, x1 = 0.5485): 1173.4 ± 1 kg/m3 | mass density (323.15 K, x1 = 0.6029): 1177.2 ± 1 kg/m3 | mass density (323.15 K, x1 = 0.7232): 1184.2 ± 1 kg/m3 | mass density (323.15 K, x1 = 0.8005): 1188 ± 1 kg/m3 | mass density (323.15 K, x1 = 0.8575): 1190.6 ± 1 kg/m3 | mass density (323.15 K, x1 = 0.9315): 1193.8 ± 1.1 kg/m3 | mass density (323.15 K, x1 = 1): 1196.7 ± 1.1 kg/m3
